Laboratory results from publication PMC5845869 (Frontiers in Microbiology, 2018).
Where two headings read alike, the source gives them in different places. Marks after values point to notes of the source that are not given here. Ends that are not written are not given here.

Assays:
[1] = test system: Candida albicans ATCC 10231; experiment: Checkerboard microdilution, rNFAP2 with FLC, RPMI 1640; format: cell-based; details: rNFAP2 combined with FLC; RPMI 1640, 10^3 cells ml^−1, 48 h, 35°C
Protocol: (§1) Antifungal synergism between rNFAP2 and FLC were investigated using the checkerboard microdilution method (Eliopoulos and Moellering, [1996]) in RPMI 1640 medium applying the drug stock preparation method and cultivation conditions described in CLSI-M27A3 document (Clinical and Laboratory Standards Institute, [2008]). […] The fractional inhibitory concentration index (FICI) as a measure of synergism and antagonism was calculated (Johnson et al., [2004]). Synergism was defined as FICI≤0.5, indifference as 0.5 < FICI ≤ 4 and antagonism was defined when FICI > 4 (Odds, [2003]).
(§2) LCM plates were incubated at 30°C, while RPMI 1640 plates at 35°C for 48 h without shaking, then the absorbance (OD620) was measured with a microtiter plate reader (SPECTROstar Nano, BMG Labtech, Ortenberg, Germany) after resuspension of the cultures with pipette. The absorbance of the untreated control cultures was referred to 100% growth in each case.
(§3) All susceptibility tests were repeated at least two times in three replicates.

[2] = test system: Candida parapsilosis CBS 604; experiment: as above; format: cell-based; details: rNFAP2 combined with FLC; RPMI 1640, 10^3 cells ml^−1, 48 h, 35°C
Protocol: as §1, §2, §3

[3] = test system: Candida albicans ATCC 10231; experiment: MIC, CLSI-M27A3 broth microdilution in RPMI 1640; format: cell-based
Protocol: (§4) Susceptibility tests were performed in low ionic strength broth medium (LCM: 0.5% glucose, 0.25% yeast extract, 0.0125% peptone (w/v)) and in RPMI 1640 medium (Sigma-Aldrich, St Louis, MO, USA) supplemented with 0.03% (w/v) L-glutamine and buffered to pH 7.0 with 0.165 M 4-morpholinopropanesulfonic acid (Sigma-Aldrich, St Louis, MO, USA).
(§5) The CLSI-M27A3 broth microdilution method (Clinical and Laboratory Standards Institute, [2008]) was applied to determinate the minimal inhibitory concentrations (MIC) of FLC (Sigma-Aldrich, St Louis, MO, USA) and rNFAP2 against the Candida isolates (10^3 cells ml^−1) under clinically approved test conditions. For this experiment, the rNFAP2 stock was prepared in bidistilled water, and FLC in dimethyl sulfoxide (DMSO). The investigated concentration range was 64–0.0625 μg ml^−1 for FCL and 100–0.39 μg ml^−1 for rNFAP2.
as §2, §3

[4] = test system: Candida parapsilosis CBS 604; experiment: MIC, CLSI-M27A3 broth microdilution in RPMI 1640; format: cell-based
Protocol: as §4, §5, §2, §3

[5] = test system: Candida krusei CBS 573; experiment: MIC, CLSI-M27A3 broth microdilution in RPMI 1640; format: cell-based; details: Pichia kudriavzevii, CBS573, 48 h, pH 7; read-out: MIC of the drug alone (a)
Protocol: as §4, §5, §2, §3

[6] = test system: Candida krusei CBS 573; experiment: Checkerboard microdilution, rNFAP2 with FLC, RPMI 1640; format: cell-based; details: rNFAP2 combined with FLC; RPMI 1640, 10^3 cells ml^−1, 48 h, 35°C
Protocol: as §1, §2, §3

[7] = Thermal unfolding followed by ECD spectroscopy; format: physicochemical
Protocol: ECD spectroscopic measurements were performed using a Jasco-J815 spectropolarimeter (JASCO Corporation, Tokyo, Japan), in the far-UV range (185–260 nm). Protein samples were dissolved in pure H2O in approximately 0.1 mg ml^−1 concentration and measured in a 0.1 cm pathlength quartz cuvette. First, ECD spectra of samples were recorded at 25°C with a scan speed of […]. […] The system was allowed to equilibrate for 1 min before measurements were taken at each temperature point.
The obtained melting curves were fitted with an inverse sigmoidal function of which inflection point designated the melting temperature (Tm) of the native protein structure.
ECD spectra were also recorded at 95°C, the final temperature of the thermal unfolding experiments, then samples were allowed to cool and measured again after 5 min of equilibration at 25°C. The reported spectra are accumulations of 10 scans, from which the similarly recorded, corresponding solvent spectrum was subtracted. Data are given as molar ellipticities. Accurate protein sample concentrations for the corrections of ECD spectra were determined using analytical RP-HPLC.

[8] = test system: Candida albicans ATCC 10231; details: LCM, 10^5 cells ml^−1, 48 h, 30°C; MIC = growth ≤ 5% (OD620)
Protocol: as §4
(§6) Antifungal susceptibility tests were performed with nNFAP2, rNFAP2, and sNFAP2 and its peptide fragments in LCM medium against yeast isolates (10^5 cells ml^−1) according to the broth microdilution method described by Tóth et al. ([2016]). Final drug concentration ranged from 25 to 0.098 μg ml^−1 for rNFAP2 and sNFAP2, and from 100 to 6.25 μg ml^−1 for the synthetic peptide fragments. The rNFAP2 was tested against nine yeast isolates, while the sNFAP2 and the synthetic peptide fragments against C. albicans ATCC 10231, C. krusei CBS 573, C. parapsilosis CBS 604, and S. cerevisiae SZMC 0644.
as §2, §3

[9] = test system: Saccharomyces cerevisiae SZMC 0644; details: LCM, 10^5 cells ml^−1, 48 h, 30°C; MIC = growth ≤ 5% (OD620)
Protocol: as §4, §6, §2, §3

[10] = test system: Candida parapsilosis CBS 604; details: LCM, 10^5 cells ml^−1, 48 h, 30°C; MIC = growth ≤ 5% (OD620)
Protocol: as §4, §6, §2, §3

[11] = test system: Candida krusei CBS 573; details: LCM, 10^5 cells ml^−1, 48 h, 30°C; MIC = growth ≤ 5% (OD620)
Protocol: as §4, §6, §2, §3

[12] = test system: Candida tropicalis CBS 94; experiment: MIC, CLSI-M27A3 broth microdilution in RPMI 1640; format: cell-based; details: RPMI 1640 pH 7.0, 10^3 cells ml^−1, 48 h, 35°C; MIC = growth ≤ 5%
Protocol: as §4, §5, §2, §3

[13] = test system: Candida guilliermondii CBS 566; experiment: MIC, CLSI-M27A3 broth microdilution in RPMI 1640; format: cell-based; details: RPMI 1640 pH 7.0, 10^3 cells ml^−1, 48 h, 35°C; MIC = growth ≤ 5%
Protocol: as §4, §5, §2, §3

[14] = test system: Candida glabrata CBS 138; experiment: MIC, CLSI-M27A3 broth microdilution in RPMI 1640; format: cell-based; details: RPMI 1640 pH 7.0, 10^3 cells ml^−1, 48 h, 35°C; MIC = growth ≤ 5%
Protocol: as §4, §5, §2, §3

[15] = test system: Candida lusitaniae CBS 6936; experiment: MIC, CLSI-M27A3 broth microdilution in RPMI 1640; format: cell-based; details: RPMI 1640 pH 7.0, 10^3 cells ml^−1, 48 h, 35°C; MIC = growth ≤ 5%
Protocol: as §4, §5, §2, §3

[16] = test system: Candida tropicalis CBS 94; experiment: MIC, broth microdilution in LCM; format: cell-based; details: 10^5 cells ml^−1, 48 h, 30°C, MIC = growth ≤ 5% (OD620)
Protocol: as §4, §6, §2, §3

[17] = test system: Candida guilliermondii CBS 566; experiment: MIC, broth microdilution in LCM; format: cell-based; details: 10^5 cells ml^−1, 48 h, 30°C, MIC = growth ≤ 5% (OD620)
Protocol: as §4, §6, §2, §3

[18] = test system: Candida glabrata CBS 138; experiment: MIC, broth microdilution in LCM; format: cell-based; details: 10^5 cells ml^−1, 48 h, 30°C, MIC = growth ≤ 5% (OD620)
Protocol: as §4, §6, §2, §3

[19] = test system: Schizosaccharomyces pombe SZMC 0142; experiment: MIC, broth microdilution in LCM; format: cell-based; details: 10^5 cells ml^−1, 48 h, 30°C, MIC = growth ≤ 5% (OD620)
Protocol: as §4, §6, §2, §3

[20] = test system: Candida lusitaniae CBS 6936; experiment: MIC, broth microdilution in LCM; format: cell-based; details: 10^5 cells ml^−1, 48 h, 30°C, MIC = growth ≤ 5% (OD620)
Protocol: as §4, §6, §2, §3

[21] = RPMI 1640 pH 7.0, 10^3 cells ml^−1, 48 h, 35°C, MIC = growth ≤ 5%

In the case of `OC(Cn1cncn1)(Cn1cncn1)c1ccc(F)cc1F` [FLC, fluconazole, reference compound], the “MIC of the drug in combination (c)” value [1] is reported as 0.25 µg/mL, the “MIC of the drug in combination (c)” value [2] is reported as 1 µg/mL and the MIC ([3]; Candida albicans, ATCC10231, 48 h, pH 7, read-out: MIC of the drug alone (a)) is reported as 1 µg/mL. It also gave an MIC ([4]; Lodderomyces parapsilosis, CBS604, 48 h, pH 7, read-out: MIC of the drug alone (a)) of 8 µg/mL and an MIC [5] of 64 µg/mL.
For “IATSPYYACNCPNNCKHKKGSGCKYHSGPSDKSKVISGKCEWQGGQLNCIAT (disulfide (positions not given here)) [rNFAP2, recombinant NFAP2 produced by P. chrysogenum nfap2]”, the “MIC of the drug in combination (c)” value [1] was 6.25 µg/mL, the “MIC of the drug in combination (c)” value [2] was 6.25 µg/mL and the “MIC of the drug in combination (c)” value [6] was 6.25 µg/mL. The thermal denaturation reversibility ([7]; ECD at 95°C, then re-measured after cooling, 5 min at 25°C) was “reversible”, the “Tm (melting temperature of the native protein structure)” value ([7]; ECD at 228 nm, 25 to 95°C at 1°C min^−1, approx. 0.1 mg ml^−1 in H2O, inflection of sigmoidal fit) was 75.79 °C and the “native fold remains intact up to” value ([7]; thermal unfolding followed by ECD) was “approximately 70 °C”. It also gave an MIC [8] of 6.25 µg/mL, an MIC [9] of 3.125 µg/mL and an MIC [10] of 1.56 µg/mL. The MIC [11] was 12.5 µg/mL, the “MIC of the drug alone (a)” value [12] was >100 µg/mL and the “MIC of the drug alone (a)” value [13] was 3.125 µg/mL. The “MIC of the drug alone (a)” value [14] was 12.5 µg/mL, the “MIC of the drug alone (a)” value [3, 21] was 200^* μg ml^−1 and the “MIC of the drug alone (a)” value [4, 21] was 100 µg/mL. The “MIC of the drug alone (a)” value [15] was >100 µg/mL, the MIC [16] was 1.56 µg/mL and the MIC [17] was 1.56 µg/mL. The MIC [18] was 1.56 µg/mL, the MIC [19] was 1.56 µg/mL and the MIC [20] was 3.125 µg/mL.
